This note sets out measurements from patent publication US20250320193A1, “OXOISOINDOLINYL SUBSTITUTED PIPERIDINEDIONE DERIVATIVE AND USE THEREOF” (GLUETACS THERAPEUTICS (SHANGHAI) CO., LTD., priority 2022, published 2025).

Experiment [1] has as its system MM.1S cells (human multiple myeloma cells). The experiment in a line: Tumor cell proliferation inhibition, CCK-8. The format is cell-based. Particulars: MM1.S, MM.1S cells, CCK-8, read-out: inhibitory activity (IC50, nM) MM.1S. Summed up: (§1)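 Cells seeded, then after 24 h exposed to 10 concentrations (top 10 μM, 5-fold serial dilutions) at 37° C, 5% CO2. Viability read with CCK-8 reagent; IC50 derived from growth-inhibition curves.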

Experiment [2] concerns Jurkat cells (human T-cell leukemia cells). The experiment in a line: Tumor cell proliferation inhibition, CCK-8. The format is cell-based. As to conditions: Jurkat cells, CCK-8, read-out: inhibitory activity (IC50, nM) Jurkat. Put shortly:
as §1

For experiment [3], the system named is CCRF-CEM (human acute lymphoblastic leukemia T-cells). The experiment in a line: Tumor cell proliferation inhibition, CCK-8. As to conditions: CCRF-CEM cells, CCK-8, read-out: inhibitory activity (IC50, nM) CCRF-CEM. The format is cell-based. Summed up: as §1
Experiment [4] deals with TMD8 cells (human diffuse large B-cell lymphoma cells). The experiment in a line: Tumor cell proliferation inhibition, CCK-8. The format is cell-based. Particulars: TMD8 cells, CCK-8, read-out: inhibitory activity (IC50, nM) TMD8. Put shortly: as §1
Experiment [5] deals with MM.1R cells (dexamethasone-resistant human multiple myeloma cells). Kind of experiment: Tumor cell proliferation inhibition, CCK-8. The format is cell-based. Particulars: MM.1R cells, CCK-8, read-out: inhibitory activity (IC50, nM) MM.1R. Put shortly: as §1
In experiment [6] the test system is MDA-MB-231 cells (human breast adenocarcinoma cells). Kind of experiment: Tumor cell proliferation inhibition, CCK-8. The format is cell-based. As to conditions: MDA-MB-231 cells, CCK-8, read-out: inhibitory activity (IC50, nM) MDA-MB-231. Put shortly: as §1
Experiment [7] deals with H146 cells (human small cell lung carcinoma cells). Kind of experiment: Tumor cell proliferation inhibition, CCK-8. The format is cell-based. As to conditions: NCI-H146, H146 cells, CCK-8, read-out: inhibitory activity (IC50, nM) H146. Summed up: as §1
Experiment [8] has as its system Kasumi-1 (human acute myeloid leukemia cells). Kind of experiment: Tumor cell proliferation inhibition, CCK-8. The format is cell-based. Particulars: Kasumi-1 cells, CCK-8, read-out: inhibitory activity (IC50, nM) Kasumi-1. Summed up: as §1
Experiment [9] deals with CAL-62 (human thyroid carcinoma cells). Kind of experiment: Tumor cell proliferation inhibition, CCK-8. The format is cell-based. As to conditions: CAL-62 cells, CCK-8, read-out: inhibitory activity (IC50, nM) CAL-62. Summed up: as §1
In experiment [10] the target is human Cereblon WT GST-tagged protein (Homo sapiens (Human), UniProt Q96SW2). Kind of experiment: CRBN-binding affinity, HTRF (CEREBLON BINDING kit, CISBIO). As to conditions: HTRF inhibitory activity. Summed up: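 Compounds were mixed with GST-tagged human Cereblon WT protein, then with Thalidomide-Red tracer and GST Eu antibody, and binding was read by HTRF. Inhibition rate was calculated from 620 nm emission relative to blank control wells (no protein) and solvent control wells.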

A further experiment deals with GSPT1 (Homo sapiens (Human), UniProt P15170+Q96SW2). Kind of experiment: Western blot, substrate protein expression in hPBMC: GSPT1. The format is cell-based. As to conditions: hPBMC, compound 500 nM, 24 hours, Western blot. Summed up: (§2)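 hPBMC, 1×10^6 cells/mL, 24 h compound exposure; RIPA lysis, BCA protein assay, SDS-PAGE, NC membrane immunoblot. Densitometry vs internal control → % protein remaining; degradation % = 100% − remaining; DC50 = conc. at 50% of DMSO band signal.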

A further experiment addresses IKZF1 (Homo sapiens (Human), UniProt Q13422+Q96SW2). The experiment in a line: Western blot, substrate protein expression in hPBMC: IKZF1. Particulars: hPBMC, compound 500 nM, 24 hours, Western blot. The format is cell-based. Put shortly:
as §2

For another experiment, the target named is IKZF3 (Homo sapiens (Human), UniProt Q96SW2+Q9UKT9). The experiment in a line: Western blot, substrate protein expression in hPBMC: IKZF3. Particulars: hPBMC, compound 500 nM, 24 hours, Western blot. The format is cell-based. Summed up:
as §2

IKZF1, sequence (Q13422 whole entry): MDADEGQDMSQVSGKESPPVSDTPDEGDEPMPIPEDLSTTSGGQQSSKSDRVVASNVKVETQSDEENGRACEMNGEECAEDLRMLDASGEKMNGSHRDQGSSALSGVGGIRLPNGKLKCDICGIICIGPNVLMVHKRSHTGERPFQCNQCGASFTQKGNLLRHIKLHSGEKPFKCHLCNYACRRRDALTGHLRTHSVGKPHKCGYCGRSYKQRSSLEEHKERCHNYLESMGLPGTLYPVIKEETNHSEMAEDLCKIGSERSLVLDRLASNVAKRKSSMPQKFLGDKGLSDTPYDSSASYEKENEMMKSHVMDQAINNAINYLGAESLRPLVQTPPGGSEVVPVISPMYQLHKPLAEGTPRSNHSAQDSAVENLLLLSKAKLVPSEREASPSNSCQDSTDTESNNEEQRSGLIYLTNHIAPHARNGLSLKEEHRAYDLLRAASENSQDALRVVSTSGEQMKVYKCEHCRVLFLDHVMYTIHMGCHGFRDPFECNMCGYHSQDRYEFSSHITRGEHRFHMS
IKZF1, sequence (Q96SW2 whole entry): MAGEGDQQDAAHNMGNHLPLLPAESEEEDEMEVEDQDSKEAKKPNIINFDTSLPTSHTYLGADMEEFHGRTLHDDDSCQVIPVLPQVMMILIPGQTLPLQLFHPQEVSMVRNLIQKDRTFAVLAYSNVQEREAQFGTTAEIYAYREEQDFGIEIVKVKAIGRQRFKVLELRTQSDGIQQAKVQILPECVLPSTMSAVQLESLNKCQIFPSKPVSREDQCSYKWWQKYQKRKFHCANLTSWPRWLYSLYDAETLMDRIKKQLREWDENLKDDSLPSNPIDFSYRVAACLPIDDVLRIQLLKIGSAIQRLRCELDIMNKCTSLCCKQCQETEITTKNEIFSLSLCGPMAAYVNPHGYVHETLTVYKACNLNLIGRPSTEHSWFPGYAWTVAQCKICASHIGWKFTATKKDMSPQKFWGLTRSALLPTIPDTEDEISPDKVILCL
IKZF1, sequence (Q16531 whole entry partner): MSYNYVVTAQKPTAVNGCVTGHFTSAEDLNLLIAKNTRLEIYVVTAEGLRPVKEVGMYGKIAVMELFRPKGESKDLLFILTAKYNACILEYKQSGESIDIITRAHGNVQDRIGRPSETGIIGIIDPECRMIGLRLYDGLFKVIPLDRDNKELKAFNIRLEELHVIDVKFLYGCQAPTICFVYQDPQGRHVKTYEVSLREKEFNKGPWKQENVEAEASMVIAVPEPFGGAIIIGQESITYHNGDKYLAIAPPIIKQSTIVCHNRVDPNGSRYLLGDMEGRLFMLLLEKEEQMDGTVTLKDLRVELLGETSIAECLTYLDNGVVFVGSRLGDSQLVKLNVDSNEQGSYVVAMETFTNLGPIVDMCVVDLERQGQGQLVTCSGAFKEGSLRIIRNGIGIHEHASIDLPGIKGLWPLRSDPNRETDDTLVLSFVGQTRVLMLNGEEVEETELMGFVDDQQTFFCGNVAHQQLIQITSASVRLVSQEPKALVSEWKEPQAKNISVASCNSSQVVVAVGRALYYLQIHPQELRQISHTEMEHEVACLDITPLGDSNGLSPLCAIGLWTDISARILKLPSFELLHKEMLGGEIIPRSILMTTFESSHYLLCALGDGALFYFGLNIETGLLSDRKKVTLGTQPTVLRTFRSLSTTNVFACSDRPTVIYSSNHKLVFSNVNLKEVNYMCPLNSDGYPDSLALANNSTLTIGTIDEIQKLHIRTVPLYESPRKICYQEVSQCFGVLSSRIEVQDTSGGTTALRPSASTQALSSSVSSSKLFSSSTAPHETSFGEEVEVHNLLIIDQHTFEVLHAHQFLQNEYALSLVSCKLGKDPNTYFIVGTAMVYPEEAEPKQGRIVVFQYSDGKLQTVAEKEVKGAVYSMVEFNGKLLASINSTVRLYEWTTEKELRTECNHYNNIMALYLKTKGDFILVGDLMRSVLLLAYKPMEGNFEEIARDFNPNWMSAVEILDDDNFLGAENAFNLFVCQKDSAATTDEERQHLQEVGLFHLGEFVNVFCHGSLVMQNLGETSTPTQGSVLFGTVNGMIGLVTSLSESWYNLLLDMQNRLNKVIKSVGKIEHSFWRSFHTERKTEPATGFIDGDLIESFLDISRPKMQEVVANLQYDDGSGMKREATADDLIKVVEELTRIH
human Cereblon WT GST-tagged protein, sequence (Q96SW2 whole entry): as the sequence (Q96SW2 whole entry) above
IKZF3, sequence (Q9UKT9 whole entry): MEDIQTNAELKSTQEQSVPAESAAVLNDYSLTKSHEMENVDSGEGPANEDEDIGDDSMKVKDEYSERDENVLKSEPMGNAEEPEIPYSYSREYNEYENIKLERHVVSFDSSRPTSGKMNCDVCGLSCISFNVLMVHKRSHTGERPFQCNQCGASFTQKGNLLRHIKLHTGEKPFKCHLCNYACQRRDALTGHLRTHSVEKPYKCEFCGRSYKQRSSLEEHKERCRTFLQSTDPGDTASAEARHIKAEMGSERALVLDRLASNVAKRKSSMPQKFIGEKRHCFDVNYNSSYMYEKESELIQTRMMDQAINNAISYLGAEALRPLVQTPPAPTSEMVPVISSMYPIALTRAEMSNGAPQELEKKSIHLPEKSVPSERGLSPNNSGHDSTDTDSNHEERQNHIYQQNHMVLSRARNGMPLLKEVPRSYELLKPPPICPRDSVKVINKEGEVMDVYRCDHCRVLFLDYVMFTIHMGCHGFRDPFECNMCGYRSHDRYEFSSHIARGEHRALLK
IKZF3, sequence (Q96SW2 whole entry): as the sequence (Q96SW2 whole entry) above
IKZF3, sequence (Q16531 whole entry partner): as the sequence (Q16531 whole entry partner) above
GSPT1, sequence (P15170 whole entry): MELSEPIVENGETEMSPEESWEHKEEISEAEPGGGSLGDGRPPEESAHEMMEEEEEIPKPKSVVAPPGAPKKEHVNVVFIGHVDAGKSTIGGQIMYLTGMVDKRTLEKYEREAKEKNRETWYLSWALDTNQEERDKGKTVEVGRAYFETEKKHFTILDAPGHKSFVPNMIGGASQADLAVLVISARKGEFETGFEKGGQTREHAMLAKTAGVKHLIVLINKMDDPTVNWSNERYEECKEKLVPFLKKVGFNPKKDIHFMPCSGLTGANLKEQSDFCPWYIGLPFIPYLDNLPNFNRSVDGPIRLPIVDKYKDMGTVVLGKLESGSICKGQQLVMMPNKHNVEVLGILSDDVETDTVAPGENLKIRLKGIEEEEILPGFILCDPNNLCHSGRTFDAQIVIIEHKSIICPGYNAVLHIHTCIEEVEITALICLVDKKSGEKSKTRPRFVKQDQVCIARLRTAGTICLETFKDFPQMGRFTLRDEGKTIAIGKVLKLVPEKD
GSPT1, sequence (Q96SW2 whole entry): as the sequence (Q96SW2 whole entry) above
GSPT1, sequence (Q16531 whole entry partner): as the sequence (Q16531 whole entry partner) above

As to `O=C1CCC(N2Cc3cc(CN4CCN(C(c5ccccc5)c5ccccc5)CC4)ccc3C2=O)C(=O)N1` (centres unmarked) [GT-03245, 3-(5-((4-benzhydrylpiperazin-1-yl)methyl)-1-oxoisoindolin-2-yl)piperidine-2,6-dione], the IC50 was 1 to 10 nM in experiment [1]; 1 to 10 nM in experiment [2]; under 1 nM in [3]; 10 to 50 nM in experiment [4]; under 1 nM in [5]; 1 to 10 nM in experiment [6]. Moreover, the IC50 is 10 to 50 nM in [7], under 1 nM in [8], under 1 nM in [9] and 500 to 1000 nM in experiment [10]. Besides, on GSPT1, the “substrate protein remaining % GSPT1” value is “A (A represents 0% ≤ substrate protein remaining % ≤ 50%)”. For the same compound, the “substrate protein remaining % IKZF1” value on IKZF1 is “A (A represents 0% ≤ substrate protein remaining % ≤ 50%)”. The “substrate protein remaining % IKZF3” value on IKZF3 is “A (A represents 0% ≤ substrate protein remaining % ≤ 50%)”.
On to `O=C1CCC(N2Cc3cc(CN4CCN(C(c5ccc(F)cc5)c5ccc(F)cc5)CC4)ccc3C2=O)C(=O)N1` (centres unmarked) [GT-03386, 3-(5-((4-(bis(4-fluorophenyl)methyl)piperazin-1-yl)methyl)-1-oxoisoindolin-2-yl)piperidine-2,6-dione], for which the IC50 is 1 to 10 nM in [1]; 10 to 50 nM in experiment [2]; 1 to 10 nM in experiment [3]; 50 to 100 nM in [4]; 1 to 10 nM in [5]; 10 to 50 nM in [6]. In addition, the IC50 in [7] lay within 50 to 100 nM; in experiment [8], 10 to 50 nM; in [9] it was 1 to 10 nM; in experiment [10] it was 500 to 1000 nM. Also, the “substrate protein remaining % GSPT1” value on GSPT1 is recorded as “A (A represents 0% ≤ substrate protein remaining % ≤ 50%)”. Moreover, at IKZF1, the “substrate protein remaining % IKZF1” value is listed as “A (A represents 0% ≤ substrate protein remaining % ≤ 50%)”. Moreover, the “substrate protein remaining % IKZF3” value at IKZF3 was “A (A represents 0% ≤ substrate protein remaining % ≤ 50%)”.
`O=C1CCC(N2Cc3c(ccc(CN4CCN(C(c5ccccc5)c5ccccc5)CC4)c3F)C2=O)C(=O)N1` (centres unmarked) [GT-03466, 3-(5-((4-benzhydrylpiperazin-1-yl)methyl)-4-fluoro-1-oxoisoindolin-2-yl)piperidine-2,6-dione]: the IC50 was 1 to 10 nM in [1]; 1 to 10 nM in experiment [2]; under 1 nM in experiment [3]; 10 to 50 nM in experiment [4]; 1 to 10 nM in experiment [5]; 1 to 10 nM in [6]. Also, the 50% inhibitory concentration (IC50) in [7] is 10 to 50 nM; in experiment [8], 1 to 10 nM; in [9], 1 to 10 nM; in experiment [10], under 500 nM. The “substrate protein remaining % GSPT1” value on GSPT1 is given as “A (A represents 0% ≤ substrate protein remaining % ≤ 50%)”. Further, at IKZF1, the “substrate protein remaining % IKZF1” value is given as “A (A represents 0% ≤ substrate protein remaining % ≤ 50%)”. Further, at IKZF3, the “substrate protein remaining % IKZF3” value is “A (A represents 0% ≤ substrate protein remaining % ≤ 50%)”.
As to `O=C1CCC(N2Cc3c(ccc(CN4CCN(C(c5ccc(F)cc5)c5ccc(F)cc5)CC4)c3F)C2=O)C(=O)N1` (centres unmarked) [GT-03564, 3-(5-((4-(bis(4-fluorophenyl)methyl)piperazin-1-yl)methyl)-4-fluoro-1-oxoisoindolin-2-yl)piperidine-2,6-dione], the 50% inhibitory concentration (IC50) in [1] is 1 to 10 nM; in [2], 10 to 50 nM; in experiment [3] it was 1 to 10 nM; in [4] it was 10 to 50 nM; in [5] it was 10 to 50 nM; in experiment [6], 10 to 50 nM. The IC50 in [7] was 10 to 50 nM; in experiment [8], 1 to 10 nM; in experiment [9], 1 to 10 nM; in [10], under 500 nM. Moreover, the “substrate protein remaining % GSPT1” value on GSPT1 was “A (A represents 0% ≤ substrate protein remaining % ≤ 50%)”. Also, on IKZF1, the “substrate protein remaining % IKZF1” value is recorded as “A (A represents 0% ≤ substrate protein remaining % ≤ 50%)”. On IKZF3, the “substrate protein remaining % IKZF3” value is listed as “A (A represents 0% ≤ substrate protein remaining % ≤ 50%)”.
As for `O=C1CCC(N2Cc3cc(CN4CCN(C(c5ccc(F)cc5)c5ccc(F)cc5)CC4)c(F)cc3C2=O)C(=O)N1` (centres unmarked) [GT-03698, 3-(5-((4-(bis(4-fluorophenyl)methyl)piperazin-1-yl)methyl)-6-fluoro-1-oxoisoindolin-2-yl)piperidine-2,6-dione], the concentration for half-maximal inhibition (IC50) in [1] was 1 to 10 nM; in experiment [2] it was 1 to 10 nM; in [3], under 1 nM; in experiment [4], 100 to 500 nM; in experiment [5], 1 to 10 nM; in experiment [6] it was 10 to 50 nM. Besides, the IC50 in experiment [7] lay within 10 to 50 nM; in experiment [8], 1 to 10 nM; in [9], 1 to 10 nM; in experiment [10] it was 500 to 1000 nM. In addition, the “substrate protein remaining % GSPT1” value at GSPT1 is “A (A represents 0% ≤ substrate protein remaining % ≤ 50%)”. In addition, the “substrate protein remaining % IKZF1” value on IKZF1 is on record as “A (A represents 0% ≤ substrate protein remaining % ≤ 50%)”. In addition, the “substrate protein remaining % IKZF3” value on IKZF3 is reported as “A (A represents 0% ≤ substrate protein remaining % ≤ 50%)”.
As for `O=C1CCC(N2Cc3cc(CN4CCN(C(c5ccccc5)c5ccccc5)CC4)c(F)cc3C2=O)C(=O)N1` (centres unmarked) [GT-03700, 3-(5-((4-benzhydrylpiperazin-1-yl)methyl)-6-fluoro-1-oxoisoindolin-2-yl)piperidine-2,6-dione], the IC50 in experiment [1] was 1 to 10 nM; in experiment [2], 1 to 10 nM; in experiment [3], 1 to 10 nM; in [4], 10 to 50 nM; in experiment [5], 1 to 10 nM; in [6] it was 1 to 10 nM. The IC50 fell in the range of 10 to 50 nM in experiment [7], 1 to 10 nM in experiment [8], 1 to 10 nM in experiment [9] and 500 to 1000 nM in experiment [10]. Besides, the “substrate protein remaining % GSPT1” value at GSPT1 is listed as “A (A represents 0% ≤ substrate protein remaining % ≤ 50%)”. Besides, the “substrate protein remaining % IKZF1” value at IKZF1 is on record as “A (A represents 0% ≤ substrate protein remaining % ≤ 50%)”. The “substrate protein remaining % IKZF3” value at IKZF3 is reported as “B (B represents substrate protein remaining % > 50%)”.
On to `O=C1CCC(N2Cc3cc(CN4CCN(C(c5cccc(F)c5)c5cccc(F)c5)CC4)c(F)cc3C2=O)C(=O)N1` (centres unmarked) [GT-03701, 3-(5-((4-(bis(3-fluorophenyl)methyl)piperazin-1-yl)methyl)-6-fluoro-1-oxoisoindolin-2-yl)piperidine-2,6-dione], for which the IC50 in experiment [1] lay in the range of 1 to 10 nM; in [2] it was 10 to 50 nM; in experiment [3] it was 1 to 10 nM; in experiment [4], 100 to 500 nM; in experiment [5], 1 to 10 nM; in experiment [6], 10 to 50 nM. Moreover, the IC50 in [7] lay within 50 to 100 nM; in [8], 10 to 50 nM; in experiment [9] it was 1 to 10 nM; in experiment [10], 500 to 1000 nM. Moreover, at GSPT1, the “substrate protein remaining % GSPT1” value is given as “A (A represents 0% ≤ substrate protein remaining % ≤ 50%)”. The “substrate protein remaining % IKZF1” value at IKZF1 is listed as “A (A represents 0% ≤ substrate protein remaining % ≤ 50%)”. In addition, the “substrate protein remaining % IKZF3” value on IKZF3 is on record as “A (A represents 0% ≤ substrate protein remaining % ≤ 50%)”.
Regarding `O=C1CCC(N2Cc3cc(CN4CCN(C(c5cccc(F)c5)c5cccc(F)c5)CC4)ccc3C2=O)C(=O)N1` (centres unmarked) [GT-03702, 3-(5-((4-(bis(3-fluorophenyl)methyl)piperazin-1-yl)methyl)-1-oxoisoindolin-2-yl)piperidine-2,6-dione], the IC50 was under 1 nM in experiment [1]; 1 to 10 nM in [2]; under 1 nM in [3]; 10 to 50 nM in experiment [4]; 1 to 10 nM in [5]; 1 to 10 nM in experiment [6]. Besides, the IC50 in experiment [7] was 10 to 50 nM; in experiment [8] it was 1 to 10 nM; in [9], under 1 nM; in experiment [10], under 500 nM. Further, on GSPT1, the “substrate protein remaining % GSPT1” value was “A (A represents 0% ≤ substrate protein remaining % ≤ 50%)”. For the same compound, at IKZF1, the “substrate protein remaining % IKZF1” value is “A (A represents 0% ≤ substrate protein remaining % ≤ 50%)”. Also, at IKZF3, the “substrate protein remaining % IKZF3” value is “A (A represents 0% ≤ substrate protein remaining % ≤ 50%)”.
